Measurements: patent publication US20250170157A1, “METHODS AND COMPOSITIONS FOR THE TREATMENT OF HEPATIC ENCEPHALOPATHY” (LEXICON PHARMACEUTICALS, INC., priority 2023, published 2025)

What was measured:
[1] = test system: mice with STZ-induced diabetes; assay: Effect of LX2761 on glycemic control and cecal pH in mice with STZ-induced diabetes; format: in vivo; conditions: adult male mice with well-established diabetes, single daily doses 1.5 or 3 mg/kg by oral gavage
Description: FIGS. 1A-1F present data showing the effect of LX2761 on glycemic control in mice with STZ-induced diabetes. […] Glucose excursions among groups were compared as glucose AUC0-120 minutes values. […] On day 49, the final study day, samples were obtained to measure FIG. 1C fasting blood glucose; FIG. 1D plasma tGLP-1; and FIG. 1E cecal glucose, reported as the total amount of glucose recovered.
This study evaluated the effect of orally administered LX2761 on glycemic control in preclinical models.
Mice and Rats. All studies were performed at Lexicon Pharmaceuticals, Inc., in strict accordance with the recommendations in the Guide for the Care and Use of Laboratory Animals of the National institutes of Health. The protocols for all studies were approved by the Lexicon Institutional Animal Care and Use Committee (OLAW Assurance Number A4152-01; AAALAC International Accreditation Number 001025). General methods for mouse and rat care have been described elsewhere. […] For all in vivo studies, mice and rats were fed HGD because glucose must be a major source of dietary calories if the effects of SGLT1 inhibition on glucose homeostasis are to be evaluated. […]
Glucose-Containing Meal Challenge. […] Vehicle or LX2761 was administered by oral gavage at 8:00 AM once daily for 4 consecutive days; body weight and food consumption were measured daily. […]

[2] = test system: subjects with type 2 diabetes (T2DM); assay: Phase 1 multiple ascending dose clinical study: safety and tolerability; format: in vivo, human
Description: (§1) A phase 1 multiple ascending dose (MAD) clinical study of LX2761 in otherwise healthy subjects with type 2 diabetes (T2DM) was conducted, following an earlier, single ascending dose study of the compound's safety and tolerability.
(§2) This study evaluated the safety and tolerability of orally administered LX2761 given qd (i.e., once daily) or bid (i.e., twice daily) for eight days, over a range of ascending multiple dose levels in subjects with T2DM. As secondary objectives, the study evaluated the PD and PK of LX2761. Of the 51 subjects enrolled in the study, 27 (52.9%) were male and 24 (47.1%) were female. Subject ages ranged from 41 to 65 years, with BMIs ranging from 20.1 to 39.8 kg/m^2.
(§3) Subjects taking LX2761 were grouped into five cohorts: Cohort A=LX2761 dosed 0.4 mg qd for 4 days followed by LX2761 dosed 0.6 mg qd for 4 days; Cohort A2=LX2761 dosed 0.2 mg bid for 8 days; Cohort B=LX2761 dosed 0.6 mg qd for 4 days followed by LX2761 dosed 0.8 mg qd for 4 days; Cohort C=LX2761 dosed 0.6 mg qd for 4 days followed by LX2761 dosed 1.0 mg qd for 4 days; Cohort C1=LX2761 dosed 0.4 mg bid for 8 days.
(§4) Reporting of TEAEs of diarrhea was not based on subject self-reporting. Given the mechanism of action of LX2761, osmotic diarrhea was expected to occur in all subjects receiving LX2761 based on either stool form or daily frequency. […] The study stopping rules defined gradation of diarrhea as follows: diarrhea of moderate intensity was defined as an increase of 4 to 5 stools/day over the normal pre-study count with moderate cramping that limits usual daily activity or may require simple therapeutic intervention; diarrhea of severe intensity was defined as an increase of 6 to 8 stools/day over the normal pre-study count with severe cramping or incontinence that prohibits usual daily activities or requires systemic drug therapy or other therapeutic intervention.

[3] = molecular target: T1, SGLT1 transporter (Homo sapiens, UniProt P13866); assay: Phase 1 multiple ascending dose clinical study: pharmacodynamics; format: in vivo
T1 construct: from tissue; host or cells: intestine of human subjects with T2DM (in vivo clinical study)
T1 sequence (P13866 1-664): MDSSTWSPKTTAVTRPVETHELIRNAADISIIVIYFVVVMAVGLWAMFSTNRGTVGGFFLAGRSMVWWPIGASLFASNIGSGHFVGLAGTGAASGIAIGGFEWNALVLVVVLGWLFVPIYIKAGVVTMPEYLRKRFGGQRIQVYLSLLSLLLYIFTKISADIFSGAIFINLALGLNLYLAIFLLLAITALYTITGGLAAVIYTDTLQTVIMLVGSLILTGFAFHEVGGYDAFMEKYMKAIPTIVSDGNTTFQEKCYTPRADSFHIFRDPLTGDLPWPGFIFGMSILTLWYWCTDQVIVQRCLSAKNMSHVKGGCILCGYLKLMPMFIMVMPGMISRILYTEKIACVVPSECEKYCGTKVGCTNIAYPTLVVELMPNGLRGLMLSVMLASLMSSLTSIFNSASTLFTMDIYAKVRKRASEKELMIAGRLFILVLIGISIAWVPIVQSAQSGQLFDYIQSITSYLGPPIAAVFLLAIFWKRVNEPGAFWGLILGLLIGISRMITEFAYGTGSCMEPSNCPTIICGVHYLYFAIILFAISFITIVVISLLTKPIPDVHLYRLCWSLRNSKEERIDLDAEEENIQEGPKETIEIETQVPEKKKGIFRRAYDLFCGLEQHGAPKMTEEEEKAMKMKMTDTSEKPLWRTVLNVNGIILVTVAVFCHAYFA
Description: A phase 1 multiple ascending dose (MAD) clinical study of LX2761 in otherwise healthy subjects with type 2 diabetes (T2DM) was conducted, following an earlier, single ascending dose study of the compound's safety and tolerability. This study evaluated the safety and tolerability of orally administered LX2761 given qd (i.e., once daily) or bid (i.e., twice daily) for eight days, over a range of ascending multiple dose levels in subjects with T2DM. As secondary objectives, the study evaluated the PD and PK of LX2761. […] Subjects taking LX2761 were grouped into five cohorts: Cohort A=LX2761 dosed 0.4 mg qd for 4 days followed by LX2761 dosed 0.6 mg qd for 4 days; Cohort A2=LX2761 dosed 0.2 mg bid for 8 days; Cohort B=LX2761 dosed 0.6 mg qd for 4 days followed by LX2761 dosed 0.8 mg qd for 4 days; Cohort C=LX2761 dosed 0.6 mg qd for 4 days followed by LX2761 dosed 1.0 mg qd for 4 days; Cohort C1=LX2761 dosed 0.4 mg bid for 8 days.

[4] = Phase 1 multiple ascending dose clinical study: pharmacokinetics; format: in vivo, human
Description: as §1, §2, §3

[5] = test system: subjects with type 2 diabetes (T2DM); assay: Phase 1 multiple ascending dose clinical study: bowel movement frequency and Bristol Stool Form (BSF) Scale; format: in vivo, human
Description: FIG. 2 provides a table with baseline Bristol Stool Form (BSF) Scale data for subjects taking placebo or LX2761 in a multiple ascending dose study.
as §1, §2, §3, §4

[6] = rodents and humans; cited from earlier work
[7] = T2DM subjects, oral qd or bid for eight days

CS[C@H]1O[C@@H](c2ccc(C)c(Cc3ccc(CCCC(=O)NC(C)(C)C(=O)NCCN(C)C)cc3)c2)[C@H](O)[C@@H](O)[C@@H]1O [LX2761, N-(1-((2-(dimethylamino)ethyl)-amino)-2-methyl-1-oxopropan-2-yl)-4-(4-(2-methyl-5-((2S,3R,4R,5S,6R)-3,4,5-trihydroxy-6-(methylthio)tetrahydro-2H-pyran-2-yl)benzyl)phenyl)butanamide]
glycemic control ([1]; FIG. 1): improved glycemic control
cecal pH ([1]; FIG. 1F): reduced cecal pH
changes in clinical laboratory evaluations, vital signs, physical examination findings, or ECG parameters [2, 7]: No clinically significant changes
intensity of reported TEAEs ([2]; all reported TEAEs): mild or moderate
severe cramping or other adverse effects associated with existing HE agents such as lactulose ([2]; human clinical trial, low doses): generally not attended by severe cramping or other adverse effects
severe TEAEs, SAEs, deaths, or discontinuations due to TEAEs ([2]; human, in vivo): No severe TEAEs, SAEs (serious adverse events), deaths, or discontinuations due to TEAEs occurred
most frequently reported TEAEs ([2]; mainly nausea, vomiting, and abdominal pain): gastrointestinal (GI) events
number of TEAEs assessed as moderate in intensity ([2]; of 25 TEAEs, reported by 6 subjects treated with LX2761): 9 TEAEs
peptide YY (PYY) after dosing [3, 7]: increases
total glucagon-like peptide 1 (GLP-1) after dosing [3, 7]: increases
least squares (LS) mean UGE0-24 versus Baseline ([3]; all LX2761 cohorts, at some time points): decreased from Baseline
difference from placebo in change from Baseline in postprandial glucose (PPG) concentration AUC0-3 ([3]; any LX2761 cohort): No statistically significant differences from placebo
difference from placebo in change from Baseline in urinary glucose excretion from 0 to 24 hours (UGE0-24) ([3]; any LX2761 cohort): No statistically significant differences from placebo
PPG concentration AUC0-3 versus Baseline ([3]; each LX2761 cohort except Cohort A2, at most assessment time points): reduced from Baseline
concentrations after the first dose (exposure) ([4]; after the first dose): mostly BLQ
increase in exposure (AUC and Cmax) ([4]; ascending dose levels, moderate to high variability): generally dose-related
absorption ([4]; oral solution): rapid absorption
subjects with BMs graded as BSF Scale Type 6 or 7 ([5]; all LX2761 cohorts but Cohort B, on at least one day through Day 8): ≥ 50%
increase in mean stool frequency per day from Baseline ([5]; all LX2761 cohorts, on at least one day through Day 8): > 0.5 BM
frequency of subjects with 2 or 3 BMs graded as BSF Scale Type 6 or 7 on a single day, versus placebo-treated subjects ([5]; all LX2761 cohorts, through Day 8): higher
change in BMs meeting study criteria of moderate or severe diarrhea ([5]; human, in vivo): No change in BMs meeting these criteria of moderate or severe diarrhea was reported
systemic exposure [6]: very low systemic exposure
